From patent US20240174690A1, “ANNULATED 2-AMINO-3-CYANO THIOPHENES AND DERIVATIVES FOR THE TREATMENT OF CANCER” (BOEHRINGER INGELHEIM INTERNATIONAL GMBH, priority 2021, published 2024)
Where two headings read alike, the source gives them in different places.

Tests used:
[1] = biological target: CYP3A4 (Homo sapiens (Human), UniProt P08684); assay: Mechanism based inhibition of CYP3A4 assay (MBI 3A4); type: in vitro ADME; conditions: hydroxy-midazolam formation after 30 min vs 0 min preincubation, 25 uM, human liver microsomes
Sequence of CYP3A4 (P08684 whole entry): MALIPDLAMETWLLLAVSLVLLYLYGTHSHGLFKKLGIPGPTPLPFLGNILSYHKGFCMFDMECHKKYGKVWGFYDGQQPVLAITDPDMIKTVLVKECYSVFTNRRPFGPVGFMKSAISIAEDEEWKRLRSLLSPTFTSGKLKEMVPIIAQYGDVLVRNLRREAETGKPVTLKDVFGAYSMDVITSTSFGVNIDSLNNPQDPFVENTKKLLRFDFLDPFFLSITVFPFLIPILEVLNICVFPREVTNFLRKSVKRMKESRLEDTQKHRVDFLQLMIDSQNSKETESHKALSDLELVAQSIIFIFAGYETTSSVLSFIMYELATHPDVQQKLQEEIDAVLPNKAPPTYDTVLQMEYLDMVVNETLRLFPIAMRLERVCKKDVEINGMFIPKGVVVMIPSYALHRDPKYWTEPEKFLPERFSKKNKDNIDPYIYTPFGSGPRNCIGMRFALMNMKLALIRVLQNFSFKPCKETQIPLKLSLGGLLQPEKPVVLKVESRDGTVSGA
How it was run: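 Human CYP3A4 activity after 30 min vs 0 min preincubation with test compound; incubate then diluted 1:10 and midazolam added for a 15 min main incubation. Quenched with acetonitrile; hydroxy-midazolam quantified by LC/MS-MS and expressed as % of the 0 min preincubation formation.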

[2] = test system: MKN1 cells; assay: MKN1 CTG proliferation assay (120 h) (gastric cancer, wt amplified); type: cell-based; conditions: Homo sapiens
Method: MKN1 CTG Proliferation Assay (120 h) (Gastric Cancer, Wt Amplified)
MKN1 cells (JCRB0252) are dispensed into white 384-well plates, flat and white bottom (Corning Costar, PNr.: 3570) at a density of 400 cells per well in 50 μL RPMI 1640 (PAN-Biotech, PNr.: P04-18047)+10% FCS (HyClone, PNr.: SH30084.03) (assay 1) or into white 384-well plates, flat and white bottom (Perkin Elmer, 6007680) at a density of 500 cells per well in 40 μl RPMI (Gibco, PNr.: 21875034)+10% FCS (HyClone, PNr.: SH30084.03) (assay 2) or into black 384-well plates, flat and clear bottom (Greiner, PNr. 781091) at a density of 200 cells per well in 60 μl RPMI-1640 (Gibco #A10491)+10% FCS (HyClone, PNr.: SH30084.03)+PenStrep (Gibco, PNr.15140-122) (assay 3). […] Compounds (10 mM stock in DMSO) are added at logarithmic dose series using the HP Digital Dispenser D300 (Tecan) (assay 1+2) or the ECHO acoustic liquid handler system (Beckman Coulter) (assay 3), including DMSO controls and normalizing for added DMSO. Plates are incubated for 120 h, and cell viability is measured using CellTiter-Glo luminescent cell viability reagent (Promega product code G7570). Viability (stated as percent of control) is defined as relative luminescence units RLU of each well divided by the RLU of cells in DMSO controls. IC50 values are determined from viability measurements by non-linear regression using a four-parameter model.

[3] = MKN-1, assay 3, CTG 120 h, read-out: MKN1 (assay 3) IC50
[4] = MKN-1, assay 1, CTG 120 h, read-out: MKN1 (assay 1) IC50
[5] = MKN-1, assay 2, CTG 120 h, read-out: MKN1 (assay 2) IC50

| MBI 3A4 [1] [%] | IC50 [2, 3] [nM] | SMILES | also measured |
| --- | --- | --- | --- |
|  | 51 | CO[C@H]1CCN(C)[C@@H]1[C@H](C)Oc1cc(-n2ccc(C(=O)N(C)C3COC3)n2)nc(-c2noc3c2CCC[C@@]32CCCc3sc(N)c(C#N)c32)n1 [II-199] |  |
|  | 11 | COCCNC(=O)c1ccn(-c2cc(O[C@@H](C)[C@@H]3[C@@H](OC)CCN3C)nc(-c3noc4c3CCC[C@@]43CCCc4sc(N)c(C#N)c43)n2)n1 [II-200] |  |
|  | 14 | CO[C@H]1CCN(C)[C@@H]1[C@H](C)Oc1cc(-n2ccc(C(N)=O)n2)nc(-c2noc3c2CCC[C@@]32CCCc3sc(N)c(C#N)c32)n1 [II-201] | IC50 [2, 4]: 20 nM |
|  | 27 | C[C@H](Oc1cc(-n2cc3ccn([C@H]4CCOC4)c(=O)c3n2)nc(-c2noc3c2CCC[C@@]32CCCc3sc(N)c(C#N)c32)n1)[C@@H]1CCCN1C [II-202] |  |
|  | 63 | C[C@H](Oc1cc(-n2cc3ccn([C@@H]4CCOC4)c(=O)c3n2)nc(-c2noc3c2CCC[C@@]32CCCc3sc(N)c(C#N)c32)n1)[C@@H]1CCCN1C [II-203] | IC50 [2, 5]: 41 nM |
|  | 48 | C[C@H](Oc1cc(-n2cc3ccn(C[C@H]4CCOC4)c(=O)c3n2)nc(-c2noc3c2CCC[C@@]32CCCc3sc(N)c(C#N)c32)n1)[C@@H]1CCCN1C [II-204] | IC50 [2, 5]: 33 nM |
|  | 33 | C[C@H](Oc1cc(-n2cc3ccn([C@@H](C)c4ccccn4)c(=O)c3n2)nc(-c2noc3c2CCC[C@@]32CCCc3sc(N)c(C#N)c32)n1)[C@@H]1CCCN1C [II-205] |  |
|  | 34 | C[C@H](Oc1cc(-n2cc3ccn(C4CCOCC4)c(=O)c3n2)nc(-c2noc3c2CCC[C@@]32CCCc3sc(N)c(C#N)c32)n1)[C@@H]1CCCN1C [II-206] |  |
|  | 785 | [2H]C([2H])([2H])N1C[C@H](F)C[C@H]1[C@H](C)Oc1cc(N2CCN(C([2H])([2H])[2H])C3(CC3)C2)nc(-c2noc3c2CCC[C@@]32CCCc3sc(N)c(C#N)c32)n1 [II-207] |  |
|  | 22 | C[C@H](Oc1cc(-n2ccc(-c3cn([C@@H]4CCOC4)nn3)n2)nc(-c2noc3c2CCC[C@@]32CCCc3sc(N)c(C#N)c32)n1)[C@@H]1CCCN1C [II-211] |  |
|  | 17 | C[C@H](Oc1cc(-n2ccc(-c3cn([C@H]4CCOC4)nn3)n2)nc(-c2noc3c2CCC[C@@]32CCCc3sc(N)c(C#N)c32)n1)[C@@H]1CCCN1C [II-212] |  |
|  | 12 | C[C@H](Oc1cc(-n2ccc(-c3cn(CC4(C)COC4)nn3)n2)nc(-c2noc3c2CCC[C@@]32CCCc3sc(N)c(C#N)c32)n1)[C@@H]1CCCN1C [II-213] |  |

Second part, the compound before the results:

| SMILES | MBI 3A4 [1] [%] | IC50 [2, 3] [nM] | also measured |
| --- | --- | --- | --- |
| C[C@H](Oc1cc(N2CCNC[C@]23CCOC3)nc(-c2onc3c2CCC[C@@]32CCCc3sc(N)c(C#N)c32)n1)[C@@H]1CCCN1C [I-12] | 56 |  |  |
| C[C@H](Oc1cc(N2CCNC[C@@]23CCOC3)nc(-c2onc3c2CCC[C@@]32CCCc3sc(N)c(C#N)c32)n1)[C@@H]1CCCN1C [I-13] | 48 | 679 |  |
| C[C@H](Oc1cc(-n2cncc3ccnc2-3)nc(-c2onc3c2CCC[C@@]32CCCc3sc(N)c(C#N)c32)n1)[C@@H]1CCCN1C [I-14] | 83 |  |  |
| C[C@H](Oc1cc(-n2cncn2)nc(-c2onc3c2CCC[C@@]32CCCc3sc(N)c(C#N)c32)n1)[C@@H]1CCCN1C [I-18] | 58 |  |  |
| C[C@H](Oc1cc(-n2cnc(C(=O)N(C)C)c2)nc(-c2noc3c2CCC[C@@]32CCCc3sc(N)c(C#N)c32)n1)[C@@H]1CCCN1C [II-126] | 56 |  |  |
| C[C@H](Oc1cc(-c2ccn([C@H]3CCOC3)n2)nc(-c2noc3c2CCC[C@@]32CCCc3sc(N)c(C#N)c32)n1)[C@@H]1CCCN1C [II-127] | 74 |  |  |
| C[C@H](Oc1cc(-c2ccn(Cc3ncco3)n2)nc(-c2noc3c2CCC[C@@]32CCCc3sc(N)c(C#N)c32)n1)[C@@H]1CCCN1C [II-128] | 60 |  |  |
| C[C@H](Oc1cc(-c2ccn(C[C@H]3CCOC3)n2)nc(-c2noc3c2CCC[C@@]32CCCc3sc(N)c(C#N)c32)n1)[C@@H]1CCCN1C [II-129] | 74 |  |  |
| C[C@H](Oc1cc(-n2cc(C(=O)N(C)C)nn2)nc(-c2noc3c2CCC[C@@]32CCCc3sc(N)c(C#N)c32)n1)[C@@H]1CCCN1C [II-132] | 70 |  |  |
| C[C@H](O)Cn1ncc(-c2cc(O[C@@H](C)[C@@H]3CCCN3C)nc(-c3noc4c3CCC[C@@]43CCCc4sc(N)c(C#N)c43)n2)n1 [II-134] | 76 |  |  |
| C[C@H](Oc1cc(-c2ccn(C)n2)nc(-c2noc3c2CCC[C@@]32CCCc3sc(N)c(C#N)c32)n1)[C@@H]1C[C@H](F)CN1C [II-144] | 60 |  |  |
| CO[C@@H]1C[C@@H]([C@H](C)Oc2cc(N3CCN(C)C4(COC4)C3)nc(-c3noc4c3CCC[C@@]43CCCc4sc(N)c(C#N)c43)n2)N(C)C1 [II-153] | 49 |  |  |
| CC(C)N1CCCN(c2cc(-n3ccnc3)nc(-c3noc4c3CCC[C@@]43CCCc4sc(N)c(C#N)c43)n2)[C@@H](C)C1 [II-169] | 66 |  |  |
| CC(C)N1CCCN(c2cc(-c3ccn(C)n3)nc(-c3noc4c3CCC[C@@]43CCCc4sc(N)c(C#N)c43)n2)[C@@H](C)C1 [II-170] | 70 |  |  |
| C[C@H](Oc1cc(N2C[C@H](C)N(C)[C@@H](C)C2)nc(-c2noc3c2CCC[C@@]32CCCc3sc(N)c(C#N)c32)n1)[C@@H]1CCCN1C [II-173] | 82 |  |  |
| CC(C)NC(=O)Cc1ccn(-c2cc(O[C@@H](C)[C@@H]3CCCN3C)nc(-c3noc4c3CCC[C@@]43CCCc4sc(N)c(C#N)c43)n2)n1 [II-182] |  | 12 | IC50 [2, 4]: 24 nM |
| CO[C@H]1CCN(C)[C@@H]1[C@H](C)Oc1cc(-n2ccc(CC(=O)NC(C)C)n2)nc(-c2noc3c2CCC[C@@]32CCCc3sc(N)c(C#N)c32)n1 [II-183] |  | 41 |  |
| CO[C@H]1CCN(C)[C@@H]1[C@H](C)Oc1cc(N2CCNC3(CC3)C2)nc(-c2noc3c2CCC[C@@]32CCCc3sc(N)c(C#N)c32)n1 [II-184] |  | 68 | IC50 [2, 5]: 227 nM |
| CCN1CCN(c2cc(O[C@@H](C)[C@@H]3C[C@@H](F)CN3C)nc(-c3noc4c3CCC[C@@]43CCCc4sc(N)c(C#N)c43)n2)CC12CC2 [II-185] |  | 1900 | IC50 [2, 5]: > 949 nM |
| CO[C@H]1CCN(C)[C@@H]1[C@H](C)Oc1cc(N2CCN(C)C3(CC3)C2)nc(-c2noc3c2CCC[C@@]32CCCc3sc(N)c(C#N)c32)n1 [II-186] |  | 260 | IC50 [2, 5]: 313 nM |
| CO[C@@H]1C[C@@H]([C@H](C)Oc2cc(N3CCNC4(CC4)C3)nc(-c3noc4c3CCC[C@@]43CCCc4sc(N)c(C#N)c43)n2)N(C)C1 [II-187] |  | 357 | IC50 [2, 5]: 383 nM |
| C[C@H](Oc1cc(-n2ccc(C(=O)N(C)C3COC3)n2)nc(-c2noc3c2CCC[C@@]32CCCc3sc(N)c(C#N)c32)n1)[C@@H]1CCCN1C [II-194] |  | 25 | IC50 [2, 4]: 20 nM |
| CO[C@H]1CCN(C)[C@@H]1[C@H](C)Oc1cc(-n2ccc(C(=O)N[C@@H]3CCOC3)n2)nc(-c2noc3c2CCC[C@@]32CCCc3sc(N)c(C#N)c32)n1 [II-197] |  | 16 |  |
| CO[C@H]1CCN(C)[C@@H]1[C@H](C)Oc1cc(-n2ccc(C(=O)N[C@H]3CCOC3)n2)nc(-c2noc3c2CCC[C@@]32CCCc3sc(N)c(C#N)c32)n1 [II-198] |  | 15 |  |
